Patent US20040014721A1, “Method for using tethered bis(polyhydroxyphenyls) and O-alkyl derivatives thereof in treating inflammatory conditions of the central nervous system” (Oklahoma Medical Research Foundation, priority 2002, published 2004)
Where two headings read alike, the source gives them in different places.

Key:
[1] = test system: EOC-20 cells
Description: (§1) Lower IC50 values indicate improved efficacy. FIG. 2 illustrates the principle of the measurement using NDGA as an example test agent. In order to determine viability, cell culture medium was replaced with phenol-free DMEM (Gibco) containing 20 μL/mL of MTT viability reagent (Promega). […] Control cells were taken to indicate 100% viability and intermediate values of MTT reduction were scaled to percentage of control. For each compound, an LD50 value was determined by extrapolation through sublethal concentrations. This value represents the concentration that reduced the MTT viability parameter by 50%.

[2] = test system: TNFα-Stimulated NO2^− Production in EOC-20 Cells; assay: TNFα-stimulated nitrite (NO2−) production in EOC-20 microglial cells, Griess assay; assay type: cell-based, mouse
Description: Cells were cultured in 24 well plates until confluent then treated with test agent, which was dissolved at 100× final concentration in dimethylsulfoxide (DMSO), or with vehicle only. Thirty minutes after treatment with test agent, cells were treated with 10 ng/mL recombinant mouse TNFα (Pharmingen, San Diego, Calif. USA). […] Each compound was tested at 100 μM, 20 μM, 4 μM, 0.8 μM and 0 μM in the presence of TNFα. Four wells of cells were used for each concentration of test agent.
as §1

[3] = Mus musculus, 24 h, Table III, 10 ng/mL TNFα, 24 hr, by interpolation, read-out: IC50
[4] = Table III, 10 ng/mL TNFα, 24 hr, by interpolation
[5] = Table III, MTT viability, by extrapolation through sublethal concentrations
[6] = Table III, 10 ng/mL TNFα, 24 hr, by interpolation, read-out: IC50
[7] = Mus musculus, Table V, read-out: IC50

Question: For COc1ccc(-c2coc3cc(O)ccc3c2=O)cc1, which LD50 ([1]; mouse) is on record?
Answer: 126 μm

Question: What about the IC50 [2, 3] of the same molecule?
Answer: 106 µM

Question: O=C(O)CCCC[C@@H]1CCSS1 (racemic) [Lipoic acid] was tested. Which IC50 [2, 4] did it give?
Answer: Inactive

Question: How did the LD50 [1, 5] turn out when CC(C)(C)[N+]([O-])=Cc1ccccc1O [2-OH-PBN] was run?
Answer: nontoxic

Question: What about the IC50 [2, 4] of the same molecule?
Answer: Inactive

Question: How did the LD50 ([1]; mouse) turn out when O=c1c(O)c(-c2ccccc2)oc2cc(O)cc(O)c12 [3,5,7-trihydroxy-flavone (galangin), 3,5,7-trihydroxy-flavone] was run?
Answer: 58 μm

Question: What about the IC50 [2, 3] of the same molecule?
Answer: 41 µM

Question: For CC(C)(C)[N+]([O-])=Cc1cccc(O)c1 [3-OH-PBN], which LD50 [1, 5] is on record?
Answer: nontoxic

Question: What about the IC50 [2, 4] of the same molecule?
Answer: Inactive

Question: With O=c1c(O)c(-c2ccccc2)oc2ccccc12 [3-OH-flavone] as the molecule, how does the LD50 [1] read?
Answer: 125 μm

Question: And the IC50 [2, 6]?
Answer: 70 µM

Question: Which results are given for CC(C)(C)[N+]([O-])=Cc1ccc(O)cc1 [4-OH-PBN]?
Answer: LD50 [1, 5]: nontoxic; IC50 [2, 4]: Inactive

Question: For O=c1cc(-c2ccc(O)cc2)oc2cc(O)cc(O)c12 [4′,5,7-trihydroxy-flavone (apigenin), 4′,5,7-trihydroxy-flavone], which LD50 [1, 5] is on record?
Answer: 87 μm

Question: What about the IC50 [2, 3] of the same molecule?
Answer: 55 µM

Question: For O=c1c(-c2ccc(O)cc2)coc2cc(O)cc(O)c12 [4′,5,7-trihydroxy-isoflavone (genistein), 4′,5,7-trihydroxy-isoflavone], which LD50 [1, 5] is on record?
Answer: nontoxic

Question: And the IC50 [2, 3]?
Answer: 46 µM

Question: COc1cc(O)c2c(=O)c(-c3ccc(O)cc3)coc2c1 [4′,5-dihydroxy-7-methoxy-isoflavone] was tested. Which LD50 [1, 5] did it give?
Answer: nontoxic

Question: What about the IC50 ([2]; Mus musculus, Table III, 10 ng/mL TNFα, 24 hr, by interpolation, read-out: IC50) of the same molecule?
Answer: 120 µM

Question: For COc1ccc(-c2coc3cc(O)cc(O)c3c2=O)cc1 [4′-methoxy-5,7-dihydroxyisoflavone], which LD50 ([1]; mouse) is on record?
Answer: 112 μm

Question: What about the IC50 [2, 3] of the same molecule?
Answer: 49 µM

Question: With O=c1cc(-c2ccccc2)oc2cc(O)ccc12 [7-OH-flavone, 7-OH-flavone] as the molecule, how does the LD50 [1, 5] read?
Answer: 125 μm

Question: And the IC50 [2, 6]?
Answer: 65 µM

Question: What does the source list for COc1cccc2c1cc([N+](=O)[O-])c1c(C(=O)O)cc3c(c12)OCO3 [Aristolochic acid]?
Answer: LD50 ([1]; Table V): 100 µM; IC50 ([2]; Mus musculus): 29 µM

Question: With c1ccc2c(c1)ccc1c3ccccc3ccc21 [Chrysene] as the molecule, how does the LD50 [1, 5] read?
Answer: nontoxic

Question: What about the IC50 [2, 4] of the same molecule?
Answer: Inactive

Question: With O=c1oc2c(O)c(O)cc3c(=O)oc4c(O)c(O)cc1c4c23 [Ellagic acid] as the molecule, how does the LD50 [1] read?
Answer: nontoxic

Question: And the IC50 [2, 3]?
Answer: 110 µM

Question: Which LD50 [1, 5] does the source give for O=c1cc(-c2ccccc2)oc2ccccc12 [Flavone] here?
Answer: 7 μm

Question: What about the IC50 [2, 3] of the same molecule?
Answer: 60 µM

Question: For CC(C)Cc1ccc(C(C)C(=O)O)cc1 (centres unmarked) [Ibuprofen], which “activity against TNFα-stimulated nitrite production” value [2] is on record?
Answer: weak activity

Question: What about the IC50 [2, 4] of the same molecule?
Answer: Inactive

Question: What about the IC50 ([2]; Table V) of the same molecule?
Answer: Inactive

Question: How did the LD50 [1, 5] turn out when COc1ccc2c(c1)c(CC(=O)O)c(C)n2C(=O)c1ccc(Cl)cc1 [Indomethacin] was run?
Answer: 124 μm

Question: And the LD50 ([1]; Table V, * obtained by linear extrapolation from points ≦100 μM)?
Answer: 124* μM

Question: And the “activity against TNFα-stimulated nitrite production” value [2]?
Answer: weak activity

Question: And the IC50 [2, 3]?
Answer: 61 µM

Question: And the IC50 [2, 7]?
Answer: 61 µM

Question: Which results are given for CC(C)c1ccc2c(c1)c(SC(C)(C)C)c(CC(C)(C)C(=O)O)n2Cc1ccc(Cl)cc1 [MK-886]?
Answer: LD50 [1]: 40 µM; IC50 ([2]; Table V, read-out: IC50): 41 µM

Question: Which IC50 [2, 3] does the source give for CN(C)c1ccc(O)c2c1C[C@H]1C[C@H]3[C@H](N(C)C)C(O)=C(C(N)=O)C(=O)[C@@]3(O)C(O)=C1C2=O [Minocycline] here?
Answer: 49 µM

Question: With C[C@H](Cc1ccc(O)c(O)c1)[C@@H](C)Cc1ccc(O)c(O)c1 [NDGA (natural), nordihydroguaiaretic acid] as the molecule, how does the IC50 [2, 3] read?
Answer: 3.1 µM

Question: And the IC50 [2, 7]?
Answer: 3 µM

Question: Which IC50 [2, 6] does the source give for C[C@H](Cc1ccc(O)c(O)c1)[C@@H](C)Cc1ccc(O)c(O)c1 [NDGA (synthetic), nordihydroguaiaretic acid] here?
Answer: 4 µM

Question: What about the IC50 ([2]; Table V, read-out: IC50) of the same molecule?
Answer: 4 µM

Question: With CS(=O)(=O)Nc1ccc([N+](=O)[O-])cc1Oc1ccccc1 [Nimesulide] as the molecule, how does the IC50 [2, 7] read?
Answer: 20 µM

Question: With CN(C)[C@@H]1C(O)=C(C(N)=O)C(=O)[C@@]2(O)C(O)=C3C(=O)c4c(O)cccc4[C@@](C)(O)[C@H]3[C@H](O)[C@@H]12 [Oxyletracycline] as the molecule, how does the IC50 [2, 6] read?
Answer: 64 µM

Question: With C[S+]([O-])c1ccc(-c2nc(-c3ccncc3)c(-c3ccc(F)cc3)[nH]2)cc1 (centres unmarked) [SB203580] as the molecule, how does the LD50 [1, 5] read?
Answer: 100 μm

Question: How did the IC50 ([2]; read-out: IC50) turn out when CCOc1ccc(CC(C)C(C)Cc2ccc(OCC)c(OCC)c2)cc1OCC (centres unmarked) [Tetra-ethyl ether of NDGA (synthetic), Tetra-ethyl ether of NDGA] was run?
Answer: 0.8 µM
